From patent publication EP2951180B1, “2,6,7,8 SUBSTITUTED PURINES AS HDM2 INHIBITORS” (Merck Sharp & Dohme Corp., priority 2013, dated 2014)

Biological target: T1, HDM2 (Homo sapiens, UniProt Q00987)
T1 construct: Thioredoxin (N); made in house; host or cells: E. coli strain BL21(DE3)Rosetta
Experiment: HDM2 FRET assay (inhibition of binding of FITC labeled p53-pocket peptide to HDM2)
Conditions: 0.5 nM HDM2 (residues 17 to 125), 3nM peptide, two hour incubation at room temperature; read-out: FRET IC50
In short: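 TR-FRET with 0.5 nM His-tagged recombinant HDM2, 3 nM FITC-labelled p53 peptide and 0.25 nM Tb-anti-His antibody in PBS, 0.01% BSA, 0.01% Tween-20, 0.1% DMSO. IC50 from em520/em495 ratio over 10-point dilutions, 4-parameter logistic fit.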

T1 sequence (Q00987 17-125): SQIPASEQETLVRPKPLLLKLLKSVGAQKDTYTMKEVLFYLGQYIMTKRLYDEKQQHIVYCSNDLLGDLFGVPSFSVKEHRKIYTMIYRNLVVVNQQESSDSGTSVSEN

SMILES	IC50
Cc1cccc(-c2nc(-c3noc(=O)[nH]3)nc3nc(N4CCOC[C@H]4C)n(C[C@H]4CC[C@H](C)CC4)c23)c1 [Example 16.28, 3-{7-[(trans-4-methylcyclohexyl)methyl]-8-[(3R)-3-methylmorpholin-4-yl]-6-(3-methylphenyl)-7H-purin-2-yl}-1,2,4-oxadiazol-5(4H)-one]	38.7 nM
CC1(C)COCCN1c1nc2nc(-c3noc(=O)[nH]3)nc(-c3cccc(Cl)c3)c2n1C[C@H]1CC[C@H](C)CC1 [Example 16.29, 3-{6-(3-chlorophenyl)-8-(3,3-dimethylmorpholin-4-yl)-7-[(trans-4-methylcyclohexyl)methyl]-7H-purin-2-yl}-1,2,4-oxadiazol-5(4H)-one]	5.2 nM
CCc1cccc(-c2nc(-c3noc(=O)[nH]3)nc3nc(N4CCOC[C@H]4c4ccccc4)n(C[C@H]4CC[C@H](C)CC4)c23)c1 [Example 16.30, 3-{6-(3-ethylphenyl)-7-[(trans-4-methylcyclohexyl)methyl]-8-[(3R)-3-phenylmorpholin-4-yl]-7H-purin-2-yl}-1,2,4-oxadiazol-5(4H)-one]	2.77 nM
C[C@H]1CC[C@H](Cn2c(N3CCOC[C@H]3c3ccccc3)nc3nc(-c4noc(=O)[nH]4)nc(-c4cccc(C(F)F)c4)c32)CC1 [Example 16.31, 3-{6-[3-(difluoromethyl)phenyl]-7-[(trans-4-methylcyclohexyl)methyl]-8-[(3R)-3-phenylmorpholin-4-yl]-7H-purin-2-yl}-1,2,4-oxadiazol-5(4H)-one]	7.11 nM
Cc1cccc(-c2nc(-c3n[nH]c(=O)o3)nc3nc(N4CCOC[C@H]4C)n(C[C@H]4CC[C@H](C)CC4)c23)c1 [Example 16.32, 5-{7-[(trans-4-methylcyclohexyl)methyl]-8-[(3R)-3-methylmorpholin-4-yl]-6-(3-methylphenyl)-7H-purin-2-yl} -1,3,4-oxadiazol-2(3H)-one]	60.5 nM
C[C@H]1CC[C@H](Cn2c(N3CCOCC3)nc3nc(-c4n[nH]c(=O)o4)nc(-c4cccc(Cl)c4)c32)CC1 [Example 16.33, 5-{6-(3-chlorophenyl)-7-[(trans-4-methylcyclohexyl)methyl]-8-morpholin-4-yl-7H-purin-2-yl}-1,3,4-oxadiazol-2(3H)-one]	163 nM
Cc1cccc(-c2nc(-c3noc(=O)[nH]3)nc3nc(N4CCOC[C@@H]4C)n(C[C@H]4CC[C@H](C)CC4)c23)c1 [Example 16.34, 3-{7-[(trans-4-methylcyclohexyl)methyl]-8-[(3S)-3-methylmorpholin-4-yl]-6-(3-methylphenyl)-7H-purin-2-yl}-1,2,4-oxadiazol-5(4H)-one]	503 nM
C[C@H]1CC[C@H](Cn2c(N3CCOC[C@H]3c3ccccc3)nc3nc(-c4n[nH]c(=O)o4)nc(-c4cncc(Cl)c4)c32)CC1 [Example 16.35, 5-{6-(5-chloropyridin-3-yl)-7-[(trans-4-methylcyclohexyl)methyl]-8-[(3R)-3-phenylmorpholin-4-yl]-7H-purin-2-yl} -1,3,4-oxadiazol-2(3H)-one]	0.824 nM
CC(C)(O)c1ccnc(-c2nc3nc(-c4noc(=O)[nH]4)nc(-c4cccc(Cl)c4)c3n2C[C@H]2CC[C@H](C)CC2)c1 [Example 16.36, 3-{6-(3-chlorophenyl)-8-[4-(1-hydroxy-1-methylethyl)pyridin-2-yl]-7-[(trans-4-methylcyclohexyl)methyl]-7H-purin-2-yl}-1,2,4-oxadiazol-5(4H)-one]	26.2 nM
Cc1cccc(-c2nc(-c3n[nH]c(=O)o3)nc3nc(N4CCOC[C@@H]4C)n(C[C@H]4CC[C@H](C)CC4)c23)c1 [Example 16.37, 5-{7-[(trans-4-methylcyclohexyl)methyl]-8-[(3S)-3-methylmorpholin-4-yl]-6-(3-methylphenyl)-7H-purin-2-yl} -1,3,4-oxadiazol-2(3H)-one]	1000 nM
C[C@H]1CC[C@H](Cn2c(N[C@@H](CO)c3ccccc3)nc3nc(-c4noc(=O)[nH]4)nc(-c4cccc(Cl)c4)c32)CC1 [Example 16.38, 3-{6-(3-chlorophenyl)-8-{[(1R)-2-hydroxy-1-phenylethyl]amino}-7-[(trans-4-methylcyclohexyl)methyl]-7H-purin-2-yl}-1,2,4-oxadiazol-5(4H)-one]	1.95 nM
CC(C)C[C@H]1COCCN1c1nc2nc(-c3noc(=O)[nH]3)nc(-c3cccc(Cl)c3)c2n1C[C@H]1CC[C@H](C)CC1 [Example 16.39, 3-{6-(3-chlorophenyl)-7-[(trans-4-methylcyclohexyl)methyl]-8-[(3S)-3-(2-methylpropyl)morpholin-4-yl]-7H-purin-2-yl}-1,2,4-oxadiazol-5(4H)-one]	47.5 nM
CC(C)C[C@@H]1COCCN1c1nc2nc(-c3noc(=O)[nH]3)nc(-c3cccc(Cl)c3)c2n1C[C@H]1CC[C@H](C)CC1 [Example 16.40, 3-{6-(3-chlorophenyl)-7-[(trans-4-methylcyclohexyl)methyl]-8-[(3R)-3-(2-methylpropyl)morpholin-4-yl]-7H-purin-2-yl}-1,2,4-oxadiazol-5(4H)-one]	4.59 nM
CC(C)(CO)Nc1nc2nc(-c3noc(=O)[nH]3)nc(-c3cccc(Cl)c3)c2n1C[C@H]1CC[C@H](C)CC1 [Example 16.41, 3-{6-(3-chlorophenyl)-8-[(2-hydroxy-1,1-dimethylethyl)amino] -7-[(trans-4-methylcyclohexyl)methyl]-7H-purin-2-yl}-1,2,4-oxadiazol-5(4H)-one]	17.8 nM
CC(C)[C@@H]1COCCN1c1nc2nc(-c3noc(=O)[nH]3)nc(-c3cccc(Cl)c3)c2n1C[C@H]1CC[C@H](C)CC1 [Example 16.42, 3-{6-(3-chlorophenyl)-7-[(trans-4-methylcyclohexyl)methyl]-8-[(3R)-3-(1-methylethyl)morpholin-4-yl]-7H-purin-2-yl}-1 ,2,4-oxadiazol-5(4H)-one]	3.62 nM
C[C@H]1COCCN1c1nc2nc(-c3noc(=O)[nH]3)nc(-c3cncc(Cl)c3)c2n1C[C@H]1CC[C@H](C)CC1 [Example 16.43, 3-{6-(5-chloropyridin-3-yl)-7-[(trans-4-methylcyclohexyl)methyl]-8-[(3S)-3-methylmorpholin-4-yl]-7H -purin-2-yl}-1,2,4-oxadiazol-5(2H)-one]	239 nM
C[C@H]1CC[C@H](Cn2c(N3CCOC[C@H]3c3ccccc3)nc3nc(-c4noc(=O)[nH]4)nc(-c4cc(Cl)cc(CO)c4)c32)CC1 [Example 16.44, 3-{6-[3-chloro-5-(hydroxymethyl)phenyl]-7-[(trans-4-methylcyclohexyl)methyl]-8-[(3R)-3-phenylmorpholin-4-yl]-7H-purin-2-yl}-1,2,4-oxadiazol-5(4H)-one]	0.205 nM
C[C@H]1CC[C@H](Cn2c(N3CCOC[C@H]3CO)nc3nc(-c4noc(=O)[nH]4)nc(-c4cccc(Cl)c4)c32)CC1 [Example 16.45, 3-{6-(3-chlorophenyl)-8-[(3R)-3-(hydroxymethyl)mor pholin-4-yl]-7-[(trans-4-methylcyclohexyl)methyl]-7H-purin-2-yl}-1,2,4-oxadiazol-5(4H)-one]	47.5 nM
C[C@H](CO)Nc1nc2nc(-c3n[nH]c(=O)o3)nc(-c3cccc(Cl)c3)c2n1C[C@H]1CC[C@H](C)CC1 [Example 16.46, 5-{6-(3-chlorophenyl)-8-{[(1R)-2-hydroxy-1-methylethyl]amino}-7-[(trans-4-methylcyclohexyl)methyl]-7H-purin-2-yl}-1,3,4-oxadiazol-2(3H)-one]	71 nM
